{
  "source": "patent US20120128730A1",
  "about": "“COMPOSITIONS AND METHODS FOR ONCE-DAILY TREATMENT OF OBSESSIVE COMPULSIVE DISORDER WITH ONDANSETRON” (priority 2010, published 2012)",
  "origin": "cited, not measured here",
  "tested_on": "mesenteric bed or the nerves in the heart",
  "conditions": "animal studies",
  "data": [
    {"smiles": "Cc1nccn1CC1CCc2c(c3ccccc3n2C)C1=O", "note": "(stereo not shown) [ondansetron]", "values": [
      {"measurement": "effect on the mesenteric bed or the nerves in the heart", "value": "did not appear to have effect"}
    ]}
  ]
}
